Results: paper PMC7531004, “Discovery of gramicidin A analogues with altered activities by multidimensional screening of a one-bead-one-compound library” (Nature Communications, 2020)
Where a SMILES comes first, the peptide text is derived from it. [ ]: non-standard residue; d: D form. The star is where a group is joined. NHCH2CH2OH = OCCN*; For = O=C*

Columns and labels:
[1] = H+/Na+ transport assay of bead-derived peptides (one-point); assay type: biochemical; design: key: relative activity; mean of two control wells = 1.00; conditions: bead-derived peptide solution, EYPC/EYPG LUVs;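 also: relative to parent gramicidin A activity set to 1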
Description: (§1) Each type of assay must be simplified and miniaturized to assess the activities of the library peptides in a 96-well format for the high-throughput screening.
H+/Na+ transport assay of bead-derived peptides.1,2,3 Trisodium 8-hydroxypyrene-1,3,6-trisulfonate
mini-extruder apparatus (Avanti Polar Lipids).
28.9 µmol) in CHCl3 (225 µL) and egg yolk phosphatidylglycerol (1.20 mg, 1.56 µmol) in CHCl3 (60.0 µL)
The thin film was hydrated and
1.0 mM pyranine) by sonication.
A suspension of the LUVs was immediately
used for the H+/Na+ transport assay.
The diluted solution of peptide
flat-bottom 96-well plate (655086, Greiner bio-one).
was vortexed at room temperature for 30 min.
(5/95, 3.0 µL) and the LUV suspension were mixed in each plate to determine 100% lysis. The untreated
LUV suspension was used to determine 0% lysis.
normalized against 100% lysis by Triton X-100 (Imax) and 0% lysis (I0) as following, where Ix is the
fluorescence intensity (Supplementary Equation 2).
I = 100 × (Ix – I0) / (Imax – I0) (2)
The mean value of the two control wells was set to 1.00. […]

[2] = system: P388 mouse leukemia cells; conditions: 92 h
Description: Each type of assay must be simplified and miniaturized to assess the activities of the library peptides in a 96-well format for the high-throughput screening. […]
Mammalian cytotoxicity assay of bead-derived peptides . P388 cells were obtained from Institute of
Development Aging and Cancer (Tohoku University). The cells were maintained with growth medium
[RPMI1640 with phenol red ( Fujifilm Wako Pure Chemical) supplemented with 10% heat -inactivated fetal
bovine serum, pe nicillin G (100 units/mL), and streptomycin (100 µg/mL)] under atmosphere of 5% CO 2 at
The collected cells were resuspended into
the growth medium at 2 × 10^4 cells/mL. The stock solutions of the peptide library were 250-fold diluted
with the growth medium. Aliquots of the medium (100 µL) containing peptides and the latter medium
containing P388 cells (100 µL) were mixed in a 96-well cell culture plate (TR5003, TrueLine). The final
concentration of P388 cells was 1 × 10^4 cells/mL. After incubation under atmosphere of 5% CO2 at 37 °C
for 92 h, the numbers of viable cells were determined by
2-(4-iodophenyl)-3-(4-nitrophenyl)-5-(2,4-disulfophenyl)-2H-tetrazolium, monosodium salt (WST-1) assay.
A solution of 1-methoxy-5-methylphenazinium methyl sulfate (1-methoxy PMS) and WST-1 in the growth
medium (1-methoxy PMS 0.70 mg/mL in Milli-Q/WST-1 3.6 mg/mL in pH 7.4 HEPES buffer = 1/9) was
added to each well of the plate (10.0 µL/well). The plate was incubated for 4 h under atmosphere of 5% CO2
at 37 °C. The absorbance of each well at 415 nm was measured using a Benchmark microplate reader
(Bio-Rad). The cytotoxicities were evaluated as cell viability (%). […]

[3] = system: Streptococcus pyogenes SSI-9; experiment: Antibacterial activity assay of bead-derived peptides (three concentrations); assay type: cell-based; design: key: +++: inhibition by the 640-fold diluted peptide solution; ++: inhibition by the 160-fold diluted solution; +: inhibition by the 40-fold diluted solution; -: no inhibition; conditions: S. pyogenes, bead-derived peptide solution, three concentrations
Description: as §1
Next, the peptides in groups A and B were subjected to the antibacterial assay and structural determination. Three peptide concentrations were applied to evaluate the growth inhibition of S. pyogenes and determine the antibacterial activity. […] Finally, the structures of the peptides were determined. […]
Antibacterial activity assay of bead-derived peptides. The stock solution of the peptide library was 4- and […]
16-fold diluted with DMSO. The non-diluted stock solution, 4-fold diluted solution, and 16-fold diluted […]
solution were transferred to the 96-well round-bottom plate (3367, Corning, 1.0 µL/well). To the solution of […]
peptide in each well was added a suspension of Streptococcus pyogenes SSI-9 strain in cation adjusted […]
Mueller Hinton Broth [40.0 µL, 2 × 10^5 colony forming units (CFU), 21 g/L Mueller Hinton Broth (Difco), 50 […]
mg/L Ca2+ (adjusted with CaCl2•2H2O), and 25 mg/L Mg2+ (adjusted with MgCl2•6H2O)] supplemented with […]
5% laked horse blood (Nippon Biotest Laboratories). The plate was incubated at 37 °C for 18 h, and the precipitation of the grown cells was examined. […]

| SMILES | H+/Na+ transport activity normalized against the value of 1 (1.00) [1] | cell viability/% [2] | antibacterial activity [3] |
| --- | --- | --- | --- |
| CNC(=O)C[C@@H](NC(=O)[C@@H](NC(=O)[C@@H](CC(C)C)NC(=O)[C@H](C)NC(=O)[C@@H](CC(C)C)NC(=O)[C@H](C)NC(=O)CNC(=O)[C@@H](NC=O)C(C)C)C(C)C)C(=O)N[C@@H](Cc1c[nH]c2ccccc12)C(=O)N[C@H](CC(C)C)C(=O)N[C@@H](Cc1c[nH]c2ccccc12)C(=O)N[C@H](CC(C)C)C(=O)N[C@@H](Cc1c[nH]c2ccccc12)C(=O)N[C@@H](C(=O)N[C@@H](Cc1c[nH]c2ccccc12)C(=O)NCCO)[C@H](C)O [compound 638] (For-VGA[dL]A[dL]V[dD](NHMe)W[dL]W[dL]W[dT]W-NHCH2CH2OH) | 1.01 | 100.0% | - |
| CC(C)C[C@@H](NC(=O)[C@H](C)NC(=O)CNC(=O)[C@@H](NC=O)C(C)C)C(=O)N[C@@H](C)C(=O)N[C@H](CC(C)C)C(=O)N[C@H](C(=O)N[C@H](CC(C)C)C(=O)N[C@@H](Cc1c[nH]c2ccccc12)C(=O)N[C@H](CC(C)C)C(=O)N[C@@H](Cc1c[nH]c2ccccc12)C(=O)N[C@@H](C(=O)N[C@@H](Cc1c[nH]c2ccccc12)C(=O)N[C@H](CC(C)C)C(=O)N[C@@H](Cc1c[nH]c2ccccc12)C(=O)NCCO)C(C)C)C(C)C [compound 646] (For-VGA[dL]A[dL]V[dL]W[dL]W[dV]W[dL]W-NHCH2CH2OH) | 1.11 | 0.2% | + |
| CC(C)C[C@@H](NC(=O)[C@H](C)NC(=O)[C@H](NC(=O)[C@H](C)NC(=O)CNC(=O)[C@@H](NC=O)C(C)C)C(C)C)C(=O)N[C@H](C(=O)N[C@@H](C(=O)N[C@@H](Cc1c[nH]c2ccccc12)C(=O)N[C@H](CC(C)C)C(=O)N[C@@H](Cc1c[nH]c2ccccc12)C(=O)N[C@@H](C(=O)N[C@@H](Cc1c[nH]c2ccccc12)C(=O)N[C@H](CC(C)C)C(=O)N[C@@H](Cc1c[nH]c2ccccc12)C(=O)NCCO)C(C)C)C(C)C)C(C)C [compound 660] (For-VGA[dV]A[dL]V[dV]W[dL]W[dV]W[dL]W-NHCH2CH2OH) | 1.06 | 15.6% | ++ |
| CC(C)C[C@@H](NC(=O)[C@H](Cc1c[nH]c2ccccc12)NC(=O)[C@@H](CC(C)C)NC(=O)[C@H](Cc1c[nH]c2ccccc12)NC(=O)[C@@H](CC(C)C)NC(=O)[C@H](Cc1c[nH]c2ccccc12)NC(=O)[C@H](NC(=O)[C@@H](NC(=O)[C@H](NC(=O)[C@H](C)NC(=O)[C@H](NC(=O)[C@H](C)NC(=O)CNC(=O)[C@@H](NC=O)C(C)C)C(C)C)C(C)C)C(C)C)C(C)C)C(=O)N[C@@H](Cc1c[nH]c2ccccc12)C(=O)NCCO [compound 662] (For-VGA[dV]A[dV]V[dV]W[dL]W[dL]W[dL]W-NHCH2CH2OH) | 1.04 | 1.5% | +++ |
| CC(C)C[C@@H](NC(=O)[C@H](Cc1c[nH]c2ccccc12)NC(=O)[C@H](NC(=O)[C@H](Cc1c[nH]c2ccccc12)NC(=O)[C@H](NC(=O)[C@@H](NC(=O)[C@H](NC(=O)[C@H](C)NC(=O)[C@H](NC(=O)[C@H](C)NC(=O)CNC(=O)[C@@H](NC=O)C(C)C)C(C)C)C(C)C)C(C)C)C(C)C)C(C)C)C(=O)N[C@@H](Cc1c[nH]c2ccccc12)C(=O)N[C@@H](C(=O)N[C@@H](Cc1c[nH]c2ccccc12)C(=O)NCCO)C(C)C [compound 676] (For-VGA[dV]A[dV]V[dV]W[dV]W[dL]W[dV]W-NHCH2CH2OH) | 1.02 | 100.0% | ++ |
| CC(C)C[C@@H](NC(=O)[C@H](C)NC(=O)CNC(=O)[C@@H](NC=O)C(C)C)C(=O)N[C@@H](C)C(=O)N[C@@H](C(=O)N[C@H](C(=O)N[C@@H](C(=O)N[C@@H](Cc1c[nH]c2ccccc12)C(=O)N[C@@H](C(=O)N[C@@H](Cc1c[nH]c2ccccc12)C(=O)N[C@@H](C(=O)N[C@@H](Cc1c[nH]c2ccccc12)C(=O)N[C@H](CC(C)C)C(=O)N[C@@H](Cc1c[nH]c2ccccc12)C(=O)NCCO)C(C)C)C(C)C)[C@H](C)O)C(C)C)C(C)C [compound 809] (For-VGA[dL]A[dV]V[dT]W[dV]W[dV]W[dL]W-NHCH2CH2OH) | 1.13 | 100.0% | - |
| CC(C)C[C@@H](NC(=O)[C@H](C)NC(=O)[C@H](NC(=O)[C@H](C)NC(=O)CNC(=O)[C@@H](NC=O)C(C)C)C(C)C)C(=O)N[C@H](C(=O)N[C@H](CC(C)C)C(=O)N[C@@H](Cc1c[nH]c2ccccc12)C(=O)N[C@@H](C(=O)N[C@@H](Cc1c[nH]c2ccccc12)C(=O)N[C@H](CC(C)C)C(=O)N[C@@H](Cc1c[nH]c2ccccc12)C(=O)N[C@@H](C(=O)N[C@@H](Cc1c[nH]c2ccccc12)C(=O)NCCO)C(C)C)C(C)C)C(C)C [compound 906] (For-VGA[dV]A[dL]V[dL]W[dV]W[dL]W[dV]W-NHCH2CH2OH) | 1.06 | 100.0% | + |
| CC(C)C[C@@H](NC(=O)[C@H](Cc1c[nH]c2ccccc12)NC(=O)[C@H](NC(=O)[C@H](Cc1c[nH]c2ccccc12)NC(=O)[C@H](NC(=O)[C@H](Cc1c[nH]c2ccccc12)NC(=O)[C@H](NC(=O)[C@@H](NC(=O)[C@H](NC(=O)[C@H](C)NC(=O)[C@H](NC(=O)[C@H](C)NC(=O)CNC(=O)[C@@H](NC=O)C(C)C)C(C)C)C(C)C)C(C)C)C(C)C)C(C)C)C(C)C)C(=O)N[C@@H](Cc1c[nH]c2ccccc12)C(=O)NCCO [compound 1004] (For-VGA[dV]A[dV]V[dV]W[dV]W[dV]W[dL]W-NHCH2CH2OH) | 1.04 | 60.4% | + |
| CC(C)C[C@@H](NC(=O)[C@H](Cc1c[nH]c2ccccc12)NC(=O)[C@H](NC(=O)[C@H](Cc1c[nH]c2ccccc12)NC(=O)[C@@H](CC(C)C)NC(=O)[C@H](Cc1c[nH]c2ccccc12)NC(=O)[C@@H](CC(C)C)NC(=O)[C@@H](NC(=O)[C@H](NC(=O)[C@H](C)NC(=O)[C@H](NC(=O)[C@H](C)NC(=O)CNC(=O)[C@@H](NC=O)C(C)C)C(C)C)C(C)C)C(C)C)[C@H](C)O)C(=O)N[C@@H](Cc1c[nH]c2ccccc12)C(=O)NCCO [compound 1251] (For-VGA[dV]A[dV]V[dL]W[dL]W[dT]W[dL]W-NHCH2CH2OH) | 1.00 | 52.9% | + |
| CC(C)C[C@@H](NC(=O)[C@H](C)NC(=O)[C@H](NC(=O)[C@H](C)NC(=O)CNC(=O)[C@@H](NC=O)C(C)C)[C@H](C)O)C(=O)N[C@H](C(=O)N[C@H](CC(C)C)C(=O)N[C@@H](Cc1c[nH]c2ccccc12)C(=O)N[C@@H](C(=O)N[C@@H](Cc1c[nH]c2ccccc12)C(=O)N[C@H](CC(C)C)C(=O)N[C@@H](Cc1c[nH]c2ccccc12)C(=O)N[C@@H](C(=O)N[C@@H](Cc1c[nH]c2ccccc12)C(=O)NCCO)C(C)C)[C@H](C)O)C(C)C [compound 1284] (For-VGA[dT]A[dL]V[dL]W[dT]W[dL]W[dV]W-NHCH2CH2OH) | 1.06 | 71.2% | - |
